In patent US8697747B2, “Enhancing coagulation or reducing fibrinolysis” (THe UAB Research Foundation, priority 2009, dated 2014):

Test system: prothrombin deficient plasma
Assay: Thrombelastography in prothrombin deficient plasma with purified prothrombin
Format: biochemical, human
Conditions: mean ± SD
Method: Plasma types, purified proteins and compounds. Prothrombin deficient plasma (George King Bio-Medical, Overland Park, Kans.) anticoagulated with sodium citrate was utilized for experimentation concerning the effects of CORM-2 on prothrombin. Purified prothrombin (Enzyme Research Laboratories, South Bend, Ind.) that was 95% pure (10.4 mg/mL, 11.1 U/mg, suspended in 20 mM Tris-HCl in 0.1M NaCl at pH 7.4) was used for experimentation. Fibrinogen deficient plasma (Affinity Biologicals, Inc., Ancaster, Ontario, Canada) anticoagulated with sodium citrate was used in experiments investigating the effects of CORM-2 on fibrinogen. […] CORM-2 and dimethyl sulfoxide (DMSO) were obtained from Sigma-Aldrich, St. Louis, Mo.
Exposure of purified prothrombin to CORM-2. In order to determine if pre-exposure of prothrombin with CORM-2 would enhance coagulation kinetics in prothrombin deficient plasma, 396 μL of pure prothrombin solution was combined with 4 μL of either DMSO or CORM-2 in DMSO for a final concentration of 0 or 100 μM CORM-2. This solution was incubated for 5 min at 37° C. prior to being added to prothrombin deficient plasma for thrombelastographic analyses. A volume of 3.1 μL of incubated solution was added to the final reaction mixture subsequently presented for a final prothrombin activity of 1 U/mL.
Prothrombin deficient plasma experiments. The final volume for experiments involving prothrombin deficient plasma was 359.1-360.7 μL. In experiments involving pre-exposure of prothrombin to 0 or 100 μM CORM-2 (n=7 per concentration), the sample consisted of 326 μL of prothrombin deficient plasma, 3.1 μL of prothrombin solution, 10 μL of tissue factor reagent (0.1% final concentration in dH2O; Instrumentation Laboratory, Lexington, Mass.), and 20 μL of 200 mM CaCl2. In experiments involving simple CORM-2 addition (positive control) to the reactants, the sample mixture consisted of 324 μL of prothrombin deficient plasma, 3.1 μL of prothrombin solution, 3.6 μL of DMSO or CORM-2 in DMSO (final CORM-2 concentration 0 or 100 μM, n=8 per concentration), 10 μL of tissue factor reagent (0.1% final concentration), and 20 μl of 200 mM CaCl2.
Thrombelastographic monitoring. Plasma sample mixtures were placed in a disposable cup in a computer-controlled THROMBELASTOGRAPH® hemostasis system (Model 5000, Haemoscope Corp., Niles, Ill.), with addition of CaCl2 as the last step to initiate clotting. Data were collected until clot strength stabilized. The following previously described variables (Examples 1-3) were determined at 37° C.: Time to maximum rate of thrombus generation (TMRTG): This is the time interval (sec) observed prior to maximum speed of clot growth. Maximum rate of thrombus generation (MRTG): This is the maximum velocity of clot growth observed (dynes/cm^2/sec). Total Thrombus Generation (TTG): This is the total area under the velocity curve during clot growth (dynes/cm^2), representing the amount of clot strength generated during clot growth.
Statistical Analyses. Data obtained from experiments involving prothrombin deficient plasma are presented as mean±SD. Typically, n=6-8 provides statistical power >0.8 in similar analyses (Examples 1 and 2). Analyses of the effects of CORM-2 on thrombelastographic variables were conducted using unpaired, two-tailed Student's t-tests. A P value of <0.05 was considered significant. Graphical representation of the thrombelastographic data derived from experiments with […] deficient plasma was generated with commercially available software (SigmaPlot 11.0, Systat Software, Inc., San Jose, Calif.). Coagulation kinetic model equations were derived with the same software. The difference between the mean values of MRTG or TTG in samples exposed to 0 or 100 μM CORM-2 were determined and expressed as percent difference secondary to CORM-2 exposure in the […] deficient plasma experiments.

[1] = 100 μM CORM-2 added to prothrombin deficient plasma mixed with prothrombin, n=8
[2] = purified prothrombin pre-exposed to 100 μM CORM-2, then added to prothrombin deficient plasma, n=7

In the case of [C-]#[O+].[C-]#[O+].[C-]#[O+].[C-]#[O+].[C-]#[O+].[C-]#[O+].[Cl][Ru][Cl].[Cl][Ru][Cl] [CORM-2, tricarbonyldichlororuthenium (II) dimer], the “MRTG (maximum rate of thrombus generation)” value [1] is reported as 9.17 ± 0.36 dynes/cm^2/sec, the “TMRTG (time to maximum rate of thrombus generation)” value [1] is reported as 1.85 ± 0.04 min and the “TTG (total thrombus generation)” value [1] is reported as 152 ± 7 dynes/cm^2. For the same molecule, the “MRTG (maximum rate of thrombus generation)” value [2] was 4.65 ± 0.99 dynes/cm^2/sec, the “TMRTG (time to maximum rate of thrombus generation)” value [2] was 2.15 ± 0.56 min and the “TTG (total thrombus generation)” value [2] was 88 ± 3 dynes/cm^2.
